The values below come from article PMC11338861, “Assessment of the potential risk of oteseconazole and two other tetrazole antifungals to inhibit adrenal steroidogenesis and peripheral metabolism of corticosteroids” (Frontiers in Pharmacology, 2024).

One assay deals with T1, CYP11A1 (Homo sapiens, UniProt P05108).
T1 sequence (P05108 40-521): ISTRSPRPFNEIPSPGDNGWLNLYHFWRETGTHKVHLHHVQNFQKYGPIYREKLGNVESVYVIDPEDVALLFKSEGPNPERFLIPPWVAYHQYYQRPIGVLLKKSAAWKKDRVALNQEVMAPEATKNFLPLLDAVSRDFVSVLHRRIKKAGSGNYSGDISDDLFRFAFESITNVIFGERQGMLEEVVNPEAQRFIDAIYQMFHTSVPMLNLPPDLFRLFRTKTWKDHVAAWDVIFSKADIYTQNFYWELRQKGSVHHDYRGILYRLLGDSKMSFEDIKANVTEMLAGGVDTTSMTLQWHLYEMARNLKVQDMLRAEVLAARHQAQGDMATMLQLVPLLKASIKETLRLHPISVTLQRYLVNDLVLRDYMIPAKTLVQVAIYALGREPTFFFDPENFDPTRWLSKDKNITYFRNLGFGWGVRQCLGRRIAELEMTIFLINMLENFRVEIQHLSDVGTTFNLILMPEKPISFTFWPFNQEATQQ
T1 sequence (P10109 61-184 partner): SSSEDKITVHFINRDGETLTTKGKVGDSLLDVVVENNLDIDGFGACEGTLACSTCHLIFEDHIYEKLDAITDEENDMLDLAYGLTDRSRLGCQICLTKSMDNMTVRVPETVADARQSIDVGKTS
In words: mitochondrial fraction of transfected V79-4 cells, pregnenolone ELISA. It is filed as cell-based.

Another assay has as its target T2, CYP11B1 (Homo sapiens, UniProt P15538).
T2 sequence (P15538 25-503): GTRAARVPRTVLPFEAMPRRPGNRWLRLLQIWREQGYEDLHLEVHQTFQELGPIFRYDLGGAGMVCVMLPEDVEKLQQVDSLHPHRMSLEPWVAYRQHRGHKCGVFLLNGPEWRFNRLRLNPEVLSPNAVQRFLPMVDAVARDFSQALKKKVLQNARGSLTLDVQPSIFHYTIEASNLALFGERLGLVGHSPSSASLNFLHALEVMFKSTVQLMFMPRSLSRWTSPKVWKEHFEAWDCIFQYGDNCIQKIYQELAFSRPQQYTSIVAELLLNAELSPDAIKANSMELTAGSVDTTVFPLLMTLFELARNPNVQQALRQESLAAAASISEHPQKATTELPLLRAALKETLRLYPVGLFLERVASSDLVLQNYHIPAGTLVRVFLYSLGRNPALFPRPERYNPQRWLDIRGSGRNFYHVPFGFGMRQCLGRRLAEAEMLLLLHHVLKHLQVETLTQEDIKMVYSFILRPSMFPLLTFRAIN
In words: mitochondrial fraction of V79-CYP11B1 cells, 11-DOC to corticosterone, UHPLC-MS/MS. The format is cell-based.

The next assay has as its target T3, CYP17A1 (Homo sapiens, UniProt P05093).
T3 sequence (P05093 1-508): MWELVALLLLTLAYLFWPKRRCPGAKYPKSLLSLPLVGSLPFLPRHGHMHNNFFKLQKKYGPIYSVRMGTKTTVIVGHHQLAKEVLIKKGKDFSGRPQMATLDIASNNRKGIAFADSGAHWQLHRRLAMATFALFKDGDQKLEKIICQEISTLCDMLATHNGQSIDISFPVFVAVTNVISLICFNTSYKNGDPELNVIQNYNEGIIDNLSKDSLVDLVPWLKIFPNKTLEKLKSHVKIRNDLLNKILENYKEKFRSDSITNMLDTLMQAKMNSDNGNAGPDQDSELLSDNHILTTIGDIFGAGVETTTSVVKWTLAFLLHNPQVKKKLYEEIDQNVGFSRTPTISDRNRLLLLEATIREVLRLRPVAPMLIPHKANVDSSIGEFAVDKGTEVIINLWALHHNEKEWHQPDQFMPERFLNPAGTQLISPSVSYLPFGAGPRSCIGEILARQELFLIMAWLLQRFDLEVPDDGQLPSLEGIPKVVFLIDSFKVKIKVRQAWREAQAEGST
T3 sequence (P16435 2-677 partner): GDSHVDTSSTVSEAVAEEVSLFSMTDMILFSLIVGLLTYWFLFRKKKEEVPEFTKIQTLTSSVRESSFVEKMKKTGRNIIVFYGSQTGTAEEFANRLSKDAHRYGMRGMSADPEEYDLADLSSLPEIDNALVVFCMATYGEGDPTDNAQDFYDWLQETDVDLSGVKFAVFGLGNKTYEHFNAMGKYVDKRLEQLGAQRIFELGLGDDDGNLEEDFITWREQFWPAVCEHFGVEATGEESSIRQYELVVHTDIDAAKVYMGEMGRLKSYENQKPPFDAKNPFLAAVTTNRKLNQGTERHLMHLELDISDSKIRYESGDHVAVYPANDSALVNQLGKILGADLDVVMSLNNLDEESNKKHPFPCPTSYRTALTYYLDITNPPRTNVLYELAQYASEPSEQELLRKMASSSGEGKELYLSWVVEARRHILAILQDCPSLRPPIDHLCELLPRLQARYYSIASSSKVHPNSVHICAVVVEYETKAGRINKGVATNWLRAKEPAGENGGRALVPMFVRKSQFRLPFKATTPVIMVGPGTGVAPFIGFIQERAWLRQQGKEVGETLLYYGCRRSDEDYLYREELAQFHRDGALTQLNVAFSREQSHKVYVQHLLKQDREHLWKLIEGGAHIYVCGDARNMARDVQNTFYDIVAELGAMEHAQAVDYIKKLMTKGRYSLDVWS
In words: […]α-hydroxylase activity, microsomes of transfected COS-1 cells, radiolabeled progesterone, TLC ([…],20-lyase IC50 […]). It is filed as biochemical.

The target in another assay is T4, CYP21A2 (Homo sapiens, UniProt P08686).
T4 sequence (P08686 1-495): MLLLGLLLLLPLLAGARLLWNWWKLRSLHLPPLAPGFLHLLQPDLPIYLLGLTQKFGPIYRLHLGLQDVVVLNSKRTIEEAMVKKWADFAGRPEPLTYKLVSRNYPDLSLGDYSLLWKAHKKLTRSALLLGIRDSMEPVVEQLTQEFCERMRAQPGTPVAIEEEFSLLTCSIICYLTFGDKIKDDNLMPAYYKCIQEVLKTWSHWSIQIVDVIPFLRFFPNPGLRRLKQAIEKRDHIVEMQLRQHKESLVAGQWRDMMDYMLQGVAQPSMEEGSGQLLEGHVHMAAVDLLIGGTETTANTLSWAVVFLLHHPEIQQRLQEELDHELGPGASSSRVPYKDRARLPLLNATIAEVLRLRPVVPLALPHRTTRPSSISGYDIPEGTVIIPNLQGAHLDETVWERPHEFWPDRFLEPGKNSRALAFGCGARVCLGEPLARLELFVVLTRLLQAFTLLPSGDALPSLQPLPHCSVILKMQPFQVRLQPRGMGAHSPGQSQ
T4 sequence (P16435 2-677 partner): T3 sequence (P16435 2-677 partner)
In words: cell-free activity assay, microsomes of transfected COS-1 cells, progesterone to 11-DOC. The format is biochemical.

What is called inhibition is the share of the control response that was lost under treatment. For the compound `CC(=O)N1CCN(c2ccc(OC[C@H]3CO[C@](Cn4ccnc4)(c4ccc(Cl)cc4Cl)O3)cc2)CC1` (racemic) [ketoconazole, reference compound], at CYP11A1, the inhibition at 10 µM is approximately 55%. The “mitochondrial fraction of V79-CYP11B1 cells, 11-DOC to corticosterone, UHPLC-MS/” value at CYP11B1 was “measuring the conversion of 11-DOC to corticosterone, with ketoconazole serving as positive control”.
The term IC50 denotes the concentration needed to halve the response being measured. A higher IC50 goes with weaker potency in that assay. `O[C@@](Cn1cnnn1)(c1ccc(F)cc1F)C(F)(F)c1ccc(-c2ccc(OCC(F)(F)F)cc2)cn1` [oteseconazole] yielded an inhibition at 10 µM at CYP11A1 of approximately 35%. In addition, the IC50 against CYP17A1 was found to be 13.2 ± 3.9 µM; against CYP21A2, 13.8 ± 1.9 µM.
`O[C@@](Cn1cnnn1)(c1ccc(F)cc1F)C(F)(F)c1ccc(-c2ccc(OC(F)(F)F)cc2)cn1` [quilseconazole] gave an inhibition at 10 µM against CYP11A1 of approximately 45%.
